Measurements as given in US10265303B2, “Hyperphenylalaninemia and treatments thereof” (BERGEN TEKNOLOGIOVERFØRING AS, priority 2015, dated 2019).

Columns and labels:
[1] = biological target: truncated dimeric hPAH ΔN102/ΔC24 (Homo sapiens, UniProt P00439); conditions: 137.8 μM compound, 2% DMSO, 1 mM L-Phe
Procedure: (§1) Tetrameric full length wild-type (WT) human PAH (hPAH) and truncated ΔN102/ΔC24-hPAH corresponding to a dimeric form containing the catalytic domain of known crystal structure were recombinantly expressed in E. coli fused to maltose-binding protein and purified by amylose-affinity chromatography and further cleaved and isolated to homogeneity essentially as described [Martinez, A., et al., Biochem. J., 1995. 306: p. 589-597]. Protein concentration was measured in a NanoDrop spectrophotometer (Thermo Scientific) using the absorbance at 280 nm and the theoretical molar extinction coefficient of 49780 M^−1 cm^−1 for WT-PAH and 46675 M^−1 cm^−1 for ΔN102/ΔC24-hPAH.
(§2) PAH activity on isolated recombinant enzymes was measured at 37° C. for 1 min with quantification of L-Tyr formed by HPLC with fluorimetric detection, essentially as described [Martinez et al. supra] with the indicated concentrations of the compounds. […] After an equilibration of the plate at 37° C. for 3 min the reaction was initiated by adding 75 μM BH4 (Schircks Laboratories, Jona, Switzerland) in 5 mM DTT and stopped after 1 min by adding 50 μl of 2% (v/v) acetic acid in ethanol (all concentrations referred to a final reaction volume of 50 μl) prior to determination of L-Tyr produced by HPLC with fluorimetric detection (γexcitation=274 nm; γemission=304 nm). Controls with 2% DMSO without compound were routinely assayed as references for data processing. A BRAVO automated liquid handling platform was used in these assays.
(§3) The steady-state kinetic parameters were estimated with 0.25 μg hPAH (0.965 μM subunit), 1 mM L-Phe and different BH4 concentrations in the range 0-400 μM, and with 100 μM BH4 and L-Phe (0-1 mM). The saturation curves were fitted to hyperbolic (for BH4) or sigmoidal (for L-Phe) kinetic models with SigmaPlot v. 9.0. (SPSS). Kinetic parameters are presented as mean±SEM obtained from nonlinear regression analysis.

[2] = biological target: full-length tetrameric wild-type hPAH (Homo sapiens, UniProt P00439); conditions: 137.8 μM compound, 2% DMSO
Procedure: as §1, §2, §3

[3] = biological target: R68S-PAH (Homo sapiens, UniProt P00439, R68S); conditions: 200 μM, 24 h, 1% DMSO
Procedure: A similar assay was used to measure PAH activity in cells lysates using 1 mM L-Phe and 200 μM BH4 with 10 min reactions and about 20-90 μg of total protein. Free amino acids and contaminants of low molecular weight were previously removed from the extracts using Zebra Desalt Spin columns (Pierce Biotechnology).
For transient expression of WT and mutant PAH, HEK293 EBNA (Epstein-Barr virus) cells, with low endogenous PAH expression, were grown as above. Cells were grown for 19 h, when they were transfected transiently transfected with […] of pcDNA3-PAH vector (WT or mutant PAH constructs R261Q, R252W, I65T and R68S) using the Lipofectamine system (Life Technologies™) as described by the manufacturer. Compound 53, with and without BH2 (200 μM) was added after 5 h of transfection at 200 μM concentration in 1% DMSO, and further incubated for 24 h, at which time the cells were harvested and stored at −80° C. In all cases a parallel negative control with only 1% DMSO was included. Cell lysates were prepared as indicated above.
Western blot analyses were performed on either cell extracts from permanently expressing or transiently transfected HEK293 cell lysates after SDS-PAGE (10% acrylamide) with 5-10 μg total protein in each lane. […] Neomycin phosphotransferase II was used as a marker of the plasmid transfection efficiency, and GAPDH was used as loading controls. […]

[4] = biological target: T1, human wild-type PAH (Homo sapiens, UniProt P00439); test: PAH immunoreactive protein level (Western blot) in HEK293 cells permanently expressing human wild-type PAH; format: cell-based; conditions: 0.04 mg/ml (average 116.7 μM), 1% DMSO, 8 h
T1 construct: expressed in transfected cells
T1 sequence (P00439 1-452): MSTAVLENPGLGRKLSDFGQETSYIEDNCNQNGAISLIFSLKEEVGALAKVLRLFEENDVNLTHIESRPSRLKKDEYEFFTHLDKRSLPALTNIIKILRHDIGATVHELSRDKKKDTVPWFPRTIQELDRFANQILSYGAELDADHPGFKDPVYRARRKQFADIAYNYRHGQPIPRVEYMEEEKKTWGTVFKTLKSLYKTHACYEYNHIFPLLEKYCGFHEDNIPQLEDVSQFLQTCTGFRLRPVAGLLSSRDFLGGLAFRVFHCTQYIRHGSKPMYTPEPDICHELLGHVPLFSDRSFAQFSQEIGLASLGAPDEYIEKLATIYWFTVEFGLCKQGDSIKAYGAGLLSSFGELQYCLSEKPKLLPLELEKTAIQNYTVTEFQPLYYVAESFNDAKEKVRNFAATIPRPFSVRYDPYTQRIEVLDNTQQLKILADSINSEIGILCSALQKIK
Procedure: Human embryonic kidney cells (HEK293; Life Technologies™) permanently expressing WT-hPAH, prepared with the Flp-In system (Life Technologies™) were kindly provided by Per Knappskog, Haukeland University Hospital. About 1 million cells were grown in DMEM medium containing 4.5 g/l glucose, 10% (v/v) fetal calf serum, 0.25 mg/ml gentamycine, 2 mM L-glutamine and 50 μg/ml hygromycin B, and after 24 h medium was changed and the test compounds were added at a concentration of 0.02 mg/ml (1% DMSO). Eight hours later, the cells were harvested, and the pellets frozen in dry ice and stored at −80° C. […] To prepare the cell extracts, the frozen cell pellets were thawed in TBS (+protease inhibitor) buffer and cells were homogenized with 0.1% TX-100, incubated 15 minutes at 4° C. and extracts were clarified by centrifugation 20000 g for 15 min at 4° C. Protein concentrations were normalized using a Direct Detect Spectrometer (Merck Millipore).
The 7 selected compounds as well as the first generation pharmacological chaperones (Compounds III and IV) were further analyzed in the presence and absence of BH2 (200 μM), added as precursor of BH4, to account for additive effects. A higher concentration of compound was also used 0.04 mg/ml (average of 116.7 μM) at otherwise same experimental conditions.

Sequence of R68S-PAH (P00439 whole entry R68S): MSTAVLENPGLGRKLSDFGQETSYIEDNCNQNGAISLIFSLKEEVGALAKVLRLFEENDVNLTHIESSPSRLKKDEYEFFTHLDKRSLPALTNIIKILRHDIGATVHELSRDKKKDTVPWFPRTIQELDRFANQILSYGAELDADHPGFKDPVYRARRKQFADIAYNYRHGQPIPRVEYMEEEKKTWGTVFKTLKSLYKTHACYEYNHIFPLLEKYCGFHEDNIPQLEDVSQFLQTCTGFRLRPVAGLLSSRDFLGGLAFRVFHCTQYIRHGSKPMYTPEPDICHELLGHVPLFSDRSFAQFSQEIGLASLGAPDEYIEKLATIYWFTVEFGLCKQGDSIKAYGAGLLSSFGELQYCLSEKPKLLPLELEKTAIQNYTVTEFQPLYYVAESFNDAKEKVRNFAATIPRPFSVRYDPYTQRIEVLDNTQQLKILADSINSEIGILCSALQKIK

effect on Vmax and Km for BH4 ([2]; 1 mM L-Phe): decreased Vmax and Km for the cofactor
mode of inhibition towards BH4 ([2]; 1 mM L-Phe): uncompetitive inhibition
PAH activity, mutant R68S [3]: An effect
effect on PAH protein (FIG. 1A) [4]: very large stimulating effect
Structure (SMILES): COc1cc(Cc2cnc(N)nc2N)cc(OC)c1OC [c53, trimethoprim]
effect on Vmax and Km for BH4 [1]: did not change the Vmax or Km-values for BH4
effect on kinetic parameters for L-Phe (Vmax and S0.5) ([2]; 100 μM BH4): does not affect the kinetic parameters for the substrate
